Data reported in patent US9765075B2, “Substituted bridged urea analogs as sirtuin modulators” (GLAXOSMITHKLINE LLC, priority 2013, dated 2017).

Molecular target: T1, SIRT1 (Homo sapiens, UniProt Q96EB6)
T1 sequence (Q96EB6 1-747): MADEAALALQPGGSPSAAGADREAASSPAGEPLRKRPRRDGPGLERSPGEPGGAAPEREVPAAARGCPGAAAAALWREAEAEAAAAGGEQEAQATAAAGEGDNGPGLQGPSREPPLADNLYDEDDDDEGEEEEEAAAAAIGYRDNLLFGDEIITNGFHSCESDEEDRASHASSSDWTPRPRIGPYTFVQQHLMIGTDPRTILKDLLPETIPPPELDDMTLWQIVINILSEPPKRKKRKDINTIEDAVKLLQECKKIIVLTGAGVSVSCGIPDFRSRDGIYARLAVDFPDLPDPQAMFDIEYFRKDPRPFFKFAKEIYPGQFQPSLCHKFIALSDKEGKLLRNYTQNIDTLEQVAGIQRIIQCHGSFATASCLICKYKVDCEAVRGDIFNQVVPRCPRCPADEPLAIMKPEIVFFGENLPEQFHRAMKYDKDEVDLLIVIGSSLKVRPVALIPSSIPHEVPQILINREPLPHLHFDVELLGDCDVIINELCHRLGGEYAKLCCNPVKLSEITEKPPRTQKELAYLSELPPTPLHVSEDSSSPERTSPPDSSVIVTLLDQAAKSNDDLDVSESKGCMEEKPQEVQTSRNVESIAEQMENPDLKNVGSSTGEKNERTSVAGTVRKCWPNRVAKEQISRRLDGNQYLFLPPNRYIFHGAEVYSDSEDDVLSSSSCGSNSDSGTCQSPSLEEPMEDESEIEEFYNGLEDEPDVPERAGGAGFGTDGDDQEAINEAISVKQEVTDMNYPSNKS
Experiment: Trp mass spectrometry assay (SIRT1 activation)
Type: biochemical
Details: Trp peptide substrate; for Tryp AVG EC1.5 (μM): concentration of test compound that results in 150% activation of SIRT1; for Emax: percent maximum fold activation of SIRT1, read-out: Tryp % Fold Act
Procedure, shortened: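 N-His-tagged SIRT1 (10 nM), expressed in E. coli, was incubated with 0.5 μM Ac-RHKK(Ac)W-NH2 peptide and 120 μM NAD+ for 25 min at 25 °C in HEPES pH 7.5 with […]. The reaction was stopped with formic acid and O-acetyl-ADP-ribose or deacetylated peptide was quantified by mass spectrometry. Results are given as EC1.5 and percent maximal activation relative to DMSO control.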

| Tryp AVG EC1.5 (μM) | Emax [%] | Structure (SMILES) |
| --- | --- | --- |
| A (EC1.5<1 μM) | ≥ 150 | O=C(Nc1ccccn1)N1c2nc(-c3cc(F)cc(C(F)(F)F)c3)ccc2N2CC[C@H]1C2 [Example 333] |
| A (EC1.5<1 μM) | ≥ 150 | O=C(Nc1cccc(C2(C(F)(F)F)N=N2)c1)N1c2nc(-c3cccc(C(F)(F)F)c3)ccc2N2CCC[C@H]1C2 [Example 335] |
| B (EC1.5 1-25 μM) | ≥ 150 | O=C(Nc1ccc(F)cn1)N1c2nc(-c3cccc(C(F)(F)F)n3)ccc2N2CC[C@H]1C2 [Example 340] |
| B (EC1.5 1-25 μM) | ≥ 150 | COc1ccc(-c2ccc3c(n2)N(C(=O)Nc2ccccn2)[C@H]2CCN3C2)cn1 [Example 342] |
| A (EC1.5<1 μM) | ≥ 150 | O=C(Nc1ccccn1)N1c2nc(-c3cc(F)cc(F)c3)ccc2N2CC[C@H]1C2 [Example 344] |
| B (EC1.5 1-25 μM) | ≥ 150 | CN(C)c1ccc(-c2ccc3c(n2)N(C(=O)Nc2ccccn2)[C@H]2CCN3C2)cn1 [Example 345] |
| B (EC1.5 1-25 μM) | ≥ 150 | COc1cncc(-c2ccc3c(n2)N(C(=O)Nc2ccccn2)[C@H]2CCN3C2)c1 [Example 346] |
| A (EC1.5<1 μM) | ≥ 150 | N#Cc1cccc(-c2ccc3c(n2)N(C(=O)Nc2ccccn2)[C@H]2CCCN3C2)c1 [Example 348] |
| B (EC1.5 1-25 μM) | ≥ 150 | Cn1cc(-c2ccc3c(n2)N(C(=O)Nc2ccccn2)[C@H]2CCN3C2)cn1 [Example 349] |
| A (EC1.5<1 μM) | ≥ 150 | N#Cc1cccc(-c2ccc3c(n2)N(C(=O)Nc2cccnc2)[C@H]2CCCN3C2)c1 [Example 350] |
| A (EC1.5<1 μM) | ≥ 150 | N#Cc1cccc(-c2ccc3c(n2)N(C(=O)Nc2cnccn2)[C@H]2CCCN3C2)c1 [Example 351] |
| A (EC1.5<1 μM) | ≥ 150 | N#Cc1cccc(-c2ccc3c(n2)N(C(=O)Nc2ccncn2)[C@H]2CCCN3C2)c1 [Example 352] |
| A (EC1.5<1 μM) | ≥ 150 | N#Cc1cccc(-c2ccc3c(n2)N(C(=O)Nc2cncc(F)c2)[C@H]2CCCN3C2)c1 [Example 353] |
| A (EC1.5<1 μM) | ≥ 150 | O=C(Nc1ccc(F)cn1)N1c2nc(-c3cccc(CC(O)CO)c3)ccc2N2CC[C@H]1C2 (some centres unmarked) [Example 356] |
| B (EC1.5 1-25 μM) | ≥ 150 | O=C(Nc1ccncc1F)N1c2nc(-c3cccc(CC(O)CO)c3)ccc2N2CC[C@H]1C2 (some centres unmarked) [Example 357] |
| C (EC1.5>25 μM) | < 150 | COc1cc(NC(=O)N2c3nc(-c4ccnc(F)c4)ccc3N3CC[C@H]2C3)ncn1 [Example 358] |
| B (EC1.5 1-25 μM) | ≥ 150 | O=C(Nc1cnccn1)N1c2nc(-c3cc(Cl)cc(Cl)c3)ccc2N2CC[C@H]1C2 [Example 364] |
| A (EC1.5<1 μM) | ≥ 150 | COc1cncc(NC(=O)N2c3nc(-c4cccc(N5CCCC5)c4)ccc3N3CC[C@H]2C3)n1 [Example 366] |
| A (EC1.5<1 μM) | ≥ 150 | O=C(Nc1ccccn1)N1c2nc(-c3cncc(C(F)(F)F)c3)ccc2N2CCC[C@H]1C2 [Example 369] |
| B (EC1.5 1-25 μM) | ≥ 150 | NC(=O)c1cncc(-c2ccc3c(n2)N(C(=O)Nc2ccccn2)[C@H]2CCN3C2)c1 [Example 371] |
| A (EC1.5<1 μM) | ≥ 150 | N#Cc1cncc(-c2ccc3c(n2)N(C(=O)Nc2ccccn2)[C@H]2CCN3C2)c1 [Example 373] |
| B (EC1.5 1-25 μM) | ≥ 150 | O=C(Nc1ccccn1)N1c2nc(-c3cncc(F)c3)ccc2N2CC[C@H]1C2 [Example 374] |
| A (EC1.5<1 μM) | ≥ 150 | CS(=O)(=O)c1cncc(-c2ccc3c(n2)N(C(=O)Nc2ccccn2)[C@H]2CCCN3C2)c1 [Example 375] |
| A (EC1.5<1 μM) | ≥ 150 | CS(=O)(=O)c1cncc(-c2ccc3c(n2)N(C(=O)Nc2cccnc2)[C@H]2CCCN3C2)c1 [Example 376] |
| A (EC1.5<1 μM) | ≥ 150 | CS(=O)(=O)c1cncc(-c2ccc3c(n2)N(C(=O)Nc2cncc(F)c2)[C@H]2CCCN3C2)c1 [Example 377] |
| A (EC1.5<1 μM) | ≥ 150 | CS(=O)(=O)c1cncc(-c2ccc3c(n2)N(C(=O)Nc2cnccn2)[C@H]2CCCN3C2)c1 [Example 378] |
| A (EC1.5<1 μM) | ≥ 150 | CS(=O)(=O)c1cncc(-c2ccc3c(n2)N(C(=O)Nc2ccncn2)[C@H]2CCCN3C2)c1 [Example 379] |

Continued, compound first:

| Structure (SMILES) | Tryp AVG EC1.5 (μM) | Emax [%] |
| --- | --- | --- |
| Cn1ccc(-c2ccc3c(n2)N(C(=O)Nc2ccccn2)[C@H]2CCN3C2)n1 [Example 331] | B (EC1.5 1-25 μM) | ≥ 150 |
| O=C(Nc1ccccn1)N1c2nc(-c3ccc(Cl)c(Cl)c3)ccc2N2CC[C@H]1C2 [Example 332] | A (EC1.5<1 μM) | ≥ 150 |
| O=C(Nc1ccccn1)N1c2nc(-c3cccc(C(F)(F)F)c3F)ccc2N2CC[C@H]1C2 [Example 334] | B (EC1.5 1-25 μM) | ≥ 150 |
| O=C(Nc1ccccn1)N1c2nc(-c3cccc(C(F)(F)F)n3)ccc2N2CC[C@H]1C2 [Example 336] | B (EC1.5 1-25 μM) | ≥ 150 |
| O=C(Nc1ccncn1)N1c2nc(-c3cccc(C(F)(F)F)n3)ccc2N2CC[C@H]1C2 [Example 337] | B (EC1.5 1-25 μM) | ≥ 150 |
| O=C(Nc1cnccn1)N1c2nc(-c3cccc(C(F)(F)F)n3)ccc2N2CC[C@H]1C2 [Example 338] | B (EC1.5 1-25 μM) | ≥ 150 |
| COc1cc(NC(=O)N2c3nc(-c4cccc(C(F)(F)F)n4)ccc3N3CC[C@H]2C3)ncn1 [Example 339] | B (EC1.5 1-25 μM) | ≥ 150 |
| N#Cc1cc(-c2ccc3c(n2)N(C(=O)Nc2ccccn2)[C@H]2CCN3C2)ccc1F [Example 341] | A (EC1.5<1 μM) | ≥ 150 |
| CN(C)Cc1cccc(-c2ccc3c(n2)N(C(=O)Nc2ccccn2)[C@H]2CCN3C2)c1 [Example 343] | B (EC1.5 1-25 μM) | ≥ 150 |
| O=C(Nc1ccccn1)N1c2nc(-c3ccc(-c4nnn[nH]4)cc3)ccc2N2CC[C@H]1C2 [Example 347] | A (EC1.5<1 μM) | ≥ 150 |
| O=C(Nc1ccccn1)N1c2nc(-c3cccc(CC(O)CO)c3)ccc2N2CC[C@H]1C2 (some centres unmarked) [Example 354] | A (EC1.5<1 μM) | ≥ 150 |
| COc1cc(NC(=O)N2c3nc(-c4cccc(CC(O)CO)c4)ccc3N3CC[C@H]2C3)ncn1 (some centres unmarked) [Example 355] | B (EC1.5 1-25 μM) | ≥ 150 |
| O=C(Nc1ccc(F)cn1)N1c2nc(N3CCCC(C(F)(F)F)C3)ccc2N2CCC[C@H]1C2 (some centres unmarked) [Example 359] | A (EC1.5<1 μM) | ≥ 150 |
| O=C(Nc1ccncc1)N1c2nc(N3CCCC(C(F)(F)F)C3)ccc2N2CCC[C@H]1C2 (some centres unmarked) [Example 360] | A (EC1.5<1 μM) | ≥ 150 |
| O=C(Nc1cc(O)ncn1)N1c2nc(N3CCCC(C(F)(F)F)C3)ccc2N2CCC[C@H]1C2 (some centres unmarked) [Example 361] | A (EC1.5<1 μM) | ≥ 150 |
| O=C(Nc1ccc(F)cn1)N1c2nc(N3CCCC(C(F)(F)F)C3)ccc2N2CCC[C@@H]1C2 (some centres unmarked) [Example 362] | C (EC1.5>25 μM) | ≥ 150 |
| O=C(Nc1cnccn1)N1c2nc(-c3cc(C(F)(F)F)cc(C(F)(F)F)c3)ccc2C2CC[C@H]1C2 [Example 363] | B (EC1.5 1-25 μM) | ≥ 150 |
| O=C(Nc1cccc(-c2cnco2)c1)N1c2nc(-c3cccc(Cl)c3)ccc2N2CC[C@H]1C2 [Example 365] | A (EC1.5<1 μM) | ≥ 150 |
| O=C(Nc1ccccn1)N1c2nc(-c3ccnc(N4CCC(C(F)(F)F)C4)c3)ccc2N2CC[C@H]1C2 (some centres unmarked) [Example 367] | A (EC1.5<1 μM) | ≥ 150 |
| COc1cc(NC(=O)N2c3nc(-c4ccnc(N5CCC(C(F)(F)F)C5)c4)ccc3N3CC[C@H]2C3)ncn1 (some centres unmarked) [Example 368] | B (EC1.5 1-25 μM) | ≥ 150 |
| Cc1n[nH]cc1-c1ccc2c(n1)N(C(=O)Nc1ccccn1)[C@H]1CCN2C1 [Example 370] | B (EC1.5 1-25 μM) | ≥ 150 |
| O=C(Nc1ccccn1)N1c2nc(-c3ccc4nonc4c3)ccc2N2CC[C@H]1C2 [Example 372] | B (EC1.5 1-25 μM) | ≥ 150 |
